In patent US7034056B2, “Aryl and biaryl compounds having MCH modulatory activity” (Pharmacopeia Drug Discovery, inc., priority 2001, dated 2006):

biological target: T1, hMCHR (MCH receptor) (Homo sapiens, UniProt Q99705); test: MCH Assay PCOP Protocol ([125I]-MCH SPA binding to hMCHR-CHO membranes); details: [125I]-MCH 0.5 nM, hMCHR-CHO membranes; read-out: Activity (ranges of Ki values);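 for Activity (Ki range): A 0.4–50 nM B 51–500 nM C 501–2500 nM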
T1 construct: (or internally produced); host or cells: CHO (Chinese hamster ovary) cells, membrane preparation
T1 sequence (Q99705 whole entry): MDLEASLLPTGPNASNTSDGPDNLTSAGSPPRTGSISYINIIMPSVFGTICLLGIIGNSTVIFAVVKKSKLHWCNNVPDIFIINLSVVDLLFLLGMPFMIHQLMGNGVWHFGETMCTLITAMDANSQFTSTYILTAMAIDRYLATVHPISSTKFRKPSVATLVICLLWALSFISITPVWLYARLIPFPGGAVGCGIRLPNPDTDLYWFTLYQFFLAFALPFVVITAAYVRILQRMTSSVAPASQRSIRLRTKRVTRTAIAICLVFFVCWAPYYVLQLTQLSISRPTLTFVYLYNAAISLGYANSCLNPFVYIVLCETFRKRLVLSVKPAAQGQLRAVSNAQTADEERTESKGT
Method: A reaction mixture of 10 μg hMCHR-CHO overexpressing membranes (from Receptor Biology, Inc., Beltsville, Md., or internally produced) and 100 μg/well WGA-SPA beads (from Amersham Pharmacia Biotech, Inc., Piscataway, N.J.)/100 μl was prepared in MCHR assay buffer (25 mM HEPES, pH 7.4, 10 mM NaCl, 10 mM MgCl2, 5 mM MnCl2, 0.1% BSA). […] The assay plates were shaken for 5 minutes on a plate shaker, then incubated for 2 hours before cpm/well were determined in a Microbeta Trilux counter (from PerkinElmer Wallac, Inc., Gaithersburg, Md.).

| Structure (SMILES) | Ki [nM] |
| --- | --- |
| CC(CCNC1CCCC1)(CNC(=O)Nc1cc(Cl)cc(Cl)c1)c1ccc(Cl)c(Cl)c1 (stereo not drawn) [Example 107] | 51 to 500 |
| N#Cc1cccc(-c2ccc(C(CCNC3CC3)CNC(=O)Nc3ccccc3)cc2)c1 (stereo not drawn) [Example 58] | 0.4 to 50 |
| O=C(NCC(CCNC1CCCC1)c1cccc(-c2cccc(F)c2)c1)Nc1cc(Cl)cc(Cl)c1 (stereo not drawn) [Example 156] | 51 to 500 |
| CN(C)CCCNCCC(CNC(=O)Nc1cc(Cl)cc(Cl)c1)c1ccc(-c2cccnc2)cc1 (stereo not drawn) [Example 35] | 0.4 to 50 |
| COc1ccc(-c2cccc(C(CCNCCCN(C)C)CNC(=O)Nc3cc(Cl)cc(Cl)c3)c2)cc1 (stereo not drawn) [Example 154] | 51 to 500 |
| O=C(NCC(CCNC1CCCC1)c1cccs1)Nc1ccc(Cl)c([N+](=O)[O-])c1 (stereo not drawn) [Example 110] | 51 to 500 |
| O=C(NCC(CCNC1CCCC1)c1ccc(Cl)cc1)Nc1cccc(Cl)c1 (stereo not drawn) [Example 139] | 501 to 2500 |
| O=C(NCC(CCNC1CCCC1)c1ccc(Cl)cc1)Nc1ccc(Cl)c(Cl)c1 (stereo not drawn) [Example 124] | 51 to 500 |
| COCC(=O)NC1CCN(CCC(CNC(=O)Nc2cc(Cl)cc(Cl)c2)c2ccc(C)cc2)C1 (stereo not drawn) [Example 208] | 501 to 2500 |
| COc1cc(CNCCC(CNC(=O)Nc2ccc(F)c(F)c2)c2ccc(Cl)c(Cl)c2)cc(OC)c1OC (stereo not drawn) [Example 131] | 51 to 500 |
| C[N+](C)([O-])CCC(CNC(=O)Nc1cc(Cl)cc(Cl)c1)c1ccc(-c2ccc[n+]([O-])c2)cc1 (stereo not drawn) [Example 40] | 501 to 2500 |
| CN(C)CCC(CNC(=O)Nc1cc(Cl)cc(Cl)c1)c1ccc(-c2cccc(C(N)=O)c2)cc1 (stereo not drawn) [Example 38] | 0.4 to 50 |
| CN(C)CCCNCCC(CNC(=O)Nc1cc(Cl)cc(Cl)c1)c1ccc(-c2c(F)cccc2F)cc1 (stereo not drawn) [Example 102] | 501 to 2500 |
| O=C(NCC(CCN1CCC(NC(=O)c2ccno2)C1)c1ccc(Cl)cc1)Nc1cc(Cl)cc(Cl)c1 (stereo not drawn) [Example 193] | 51 to 500 |
| O=C(NCC(CCNC1CCNC1)c1ccc(Cl)c(Cl)c1)Nc1ccc(Cl)c(Cl)c1 (stereo not drawn) [Example 135] | 51 to 500 |
| N#Cc1cccc(-c2ccc(C(CCNC3CC3)CNC(=O)Nc3ccc(F)c(Cl)c3)cc2)c1 (stereo not drawn) [Example 56] | 0.4 to 50 |
| N#Cc1cccc(-c2ccc(C(CCNC3CC3)CNC(=O)Nc3ccc(Cl)cc3)cc2)c1 (stereo not drawn) [Example 65] | 0.4 to 50 |
| CNCCC(CNC(=O)Nc1ccccc1)c1ccc(-c2cccc(C#N)c2)cc1 (stereo not drawn) [Example 57] | 0.4 to 50 |
| N#Cc1cccc(-c2ccc(C(CCNC3CC3)CNC(=O)Nc3cc(Cl)cc(Cl)c3)cc2)c1 (stereo not drawn) [Example 76] | 0.4 to 50 |
| CN(C)CCCNCCC(C)(CNC(=O)Nc1ccc(F)c(F)c1)c1ccc(Cl)c(Cl)c1 (stereo not drawn) [Example 119] | 501 to 2500 |
| CN(C)CCCNCCC(CNC(=O)Nc1cc(Cl)cc(Cl)c1)c1ccc(-c2ccc(F)c(F)c2)cc1 (stereo not drawn) [Example 92] | 0.4 to 50 |
| O=C(NCC(CCN1CCC(NC(=O)c2cccs2)C1)c1ccc(Cl)cc1)Nc1cc(Cl)cc(Cl)c1 (stereo not drawn) [Example 183] | 51 to 500 |
| Cc1ccc(-c2cccc(C(CCNCCCN(C)C)CNC(=O)Nc3cc(Cl)cc(Cl)c3)c2)cc1 (stereo not drawn) [Example 162] | 501 to 2500 |
| N#Cc1cccc(-c2ccc(C(CCNC3CC3)CNC(=O)Nc3cccc(F)c3)cc2)c1 (stereo not drawn) [Example 54] | 0.4 to 50 |
| CC(=O)NC1CCN(CCC(CNC(=O)Nc2cc(Cl)cc(Cl)c2)c2ccc(Cl)cc2)CC1 (stereo not drawn) [Example 196] | 51 to 500 |
| CN(CCC(C(=O)NCc1cc(C(F)(F)F)cc(C(F)(F)F)c1)c1ccc(Cl)c(Cl)c1)C1CCCCC1 (racemic) [Example 30, (R,S)-N-(3,5-Bistrifluoromethyl-benzyl)-4-(cyclohexyl-methyl-amino)-2-(3,4-dichloro-phenyl)-butyramide] | 501 to 2500 |
| CS(=O)(=O)NC1CCN(CCC(CNC(=O)Nc2cc(Cl)cc(Cl)c2)c2ccc(Cl)cc2)C1 (stereo not drawn) [Example 204] | 501 to 2500 |

same assay, conditions: [125I]-MCH SPA binding, hMCHR-CHO membranes; Ki class ranges; read-out: Activity (range of Ki)

| Structure (SMILES) | Ki [nM] |
| --- | --- |
| CC1CCCCN1CCC(CNC(=O)c1cc(C(F)(F)F)cc(C(F)(F)F)c1)c1ccc(Cl)c(Cl)c1 (stereo not drawn) [Example 419] | 501 to 2500 |
| O=C(NCC(CCN1CCCC1CN1CCCC1)c1ccc(Cl)c(Cl)c1)Nc1cc(C(F)(F)F)cc(C(F)(F)F)c1 (stereo not drawn) [Example 430] | 501 to 2500 |
| O=C(NCC(CCN1CCCCC1)c1ccc(Cl)c(Cl)c1)c1cccc(Cl)c1 (stereo not drawn) [Example 447] | 501 to 2500 |
| CCN1CCCC1CNCCC(CNC(=O)Nc1cc(C(F)(F)F)cc(C(F)(F)F)c1)c1ccc(Cl)c(Cl)c1 (stereo not drawn) [Example 423] | 51 to 500 |
| CC(Cc1c[nH]c2ccc(F)cc12)NCCC(CNC(=O)Nc1cc(C(F)(F)F)cc(C(F)(F)F)c1)c1ccc(Cl)c(Cl)c1 (stereo not drawn) [Example 439] | 501 to 2500 |

same assay, conditions: [125I]-MCH binding to hMCHR-CHO membranes; class symbols for ranges of Ki; read-out: Activity (Ki range)

| Structure (SMILES) | Ki [nM] |
| --- | --- |
| O=S(=O)(NCC(CCN1CCC(c2ccccc2)CC1)c1ccc(Cl)c(Cl)c1)c1ccc(Cl)c(Cl)c1 (stereo not drawn) [Example 348] | 501 to 2500 |
| O=C(NCC(CCNC1CCCC1)c1ccc(Cl)c(Cl)c1)Nc1ccc(Cl)c(Cl)c1 (stereo not drawn) [Example 279] | 51 to 500 |
| O=C(NCC(CCN1CCC(N2CCCCC2)CC1)c1ccc(Cl)c(Cl)c1)Nc1ccc(Cl)cc1 (stereo not drawn) [Example 325] | 501 to 2500 |
| Cc1ccc(-c2ccc(C(CCNCCCN(C)C)CNC(=O)Nc3cc(Cl)cc(Cl)c3)cc2)cc1 (stereo not drawn) [Example 254] | 501 to 2500 |
| CN(C)CCCNCCC(CNC(=O)Nc1cccc(C(F)(F)F)c1)c1ccc(Cl)c(Cl)c1 (stereo not drawn) [Example 310] | 501 to 2500 |
| O=C(NCC(CCN1CCNCC1)c1ccc(Cl)c(Cl)c1)Nc1cccc(C(F)(F)F)c1 (stereo not drawn) [Example 309] | 501 to 2500 |
| O=C(NCC(CCNCCc1c[nH]c2ccccc12)c1ccc(Cl)c(Cl)c1)c1cc(C(F)(F)F)cc(C(F)(F)F)c1 (stereo not drawn) [Example 400] | 501 to 2500 |
| Cc1ccc(C(CCNC2CCCC2)CNC(=O)Nc2cc(Cl)cc(Cl)c2)cc1 (stereo not drawn) [Example 271] | 51 to 500 |
| Cc1ccc(NC(=O)NCC(CCN2CCC(N3CCCCC3)CC2)c2ccc(Cl)c(Cl)c2)cc1F (stereo not drawn) [Example 361] | 501 to 2500 |
| CN(C)C1CCN(CCC(CNC(=O)Nc2cccc(C(F)(F)F)c2)c2ccc(Cl)c(Cl)c2)C1 (stereo not drawn) [Example 306] | 501 to 2500 |
| CN(C)CCCNCCC(CNC(=O)Nc1cc(Cl)cc(Cl)c1)c1ccc(-c2ccc(Cl)cc2)cc1 (stereo not drawn) [Example 246] | 51 to 500 |
| O=C(NCC(CCN1CCCC1)c1ccc(Cl)c(Cl)c1)Nc1cccc(C(F)(F)F)c1 (stereo not drawn) [Example 299] | 501 to 2500 |
| O=C(NCC(CCN1CCCC1)c1ccc(Cl)cc1)Nc1cc(C(F)(F)F)cc(C(F)(F)F)c1 (stereo not drawn) [Example 329] | 51 to 500 |
| O=S(=O)(NCC(CCNCCc1c[nH]c2ccccc12)c1ccc(Cl)cc1)c1ccc(Cl)c(Cl)c1 (stereo not drawn) [Example 342] | 501 to 2500 |
| CN(C)CCCNCCC(CNC(=O)Nc1cc(Cl)cc(Cl)c1)c1ccc(Cl)c(Cl)c1 (stereo not drawn) [Example 304] | 501 to 2500 |
| O=C(NCc1cc(C(F)(F)F)cc(C(F)(F)F)c1)C(CCNCCc1c[nH]c2ccccc12)c1ccc(Cl)c(Cl)c1 (stereo not drawn) [Example 385] | 501 to 2500 |
| CC1CCN(CCC(C(=O)NCc2cc(C(F)(F)F)cc(C(F)(F)F)c2)c2ccc(Cl)c(Cl)c2)CC1 (stereo not drawn) [Example 382] | 501 to 2500 |
| O=C(NCC(CCNCCN1CCCC1)c1ccc(Cl)c(Cl)c1)c1cc(C(F)(F)F)cc(C(F)(F)F)c1 (stereo not drawn) [Example 411] | 501 to 2500 |
| O=C(NCC(CCN1CCC(N2CCCCC2)CC1)c1ccc(Cl)c(Cl)c1)Nc1ccc(F)c([N+](=O)[O-])c1 (stereo not drawn) [Example 356] | 51 to 500 |

| Structure (SMILES) | Ki [nM] |
| --- | --- |
| O=C(NCC(CCN1CCC(N2CCCCC2)CC1)c1ccc(Cl)c(Cl)c1)Nc1ccc(Br)cc1Br (stereo not drawn) [Example 359] | 501 to 2500 |
| CN(C)CCCNCCC(CNC(=O)Nc1cc(C(F)(F)F)cc(C(F)(F)F)c1)c1ccc(Cl)cc1 (stereo not drawn) [Example 337] | 501 to 2500 |
| COc1ccc(C(CCNCCCN(C)C)CNC(=O)Nc2cc(C(F)(F)F)cc(C(F)(F)F)c2)cc1 (stereo not drawn) [Example 345] | 501 to 2500 |
| CN(C)CCCNCCC(CNC(=O)Nc1cc(C(F)(F)F)cc(C(F)(F)F)c1)c1cccc(Cl)c1 (stereo not drawn) [Example 344] | 501 to 2500 |
| O=C(NCC(CCNC1CCCC1)c1ccc(Cl)c(Cl)c1)Nc1cc(Cl)cc(Cl)c1 (stereo not drawn) [Example 280] | 51 to 500 |
| CN(C)CCCNCCC(CNC(=O)Nc1cc(Cl)cc(Cl)c1)c1ccc(-c2ccc(C(F)(F)F)cc2)cc1 (stereo not drawn) [Example 255] | 501 to 2500 |
| COc1ccc(-c2ccc(C(CCNCCCN(C)C)CNC(=O)Nc3cc(Cl)cc(Cl)c3)cc2)c(OC)c1 (stereo not drawn) [Example 239] | 51 to 500 |
| COc1ccc2[nH]cc(CCNCCC(CNC(=O)c3cc(C(F)(F)F)cc(C(F)(F)F)c3)c3ccc(Cl)c(Cl)c3)c2c1 (stereo not drawn) [Example 396] | 501 to 2500 |
| O=C(NCC(CCNCCc1ccc(O)cc1)c1ccc(Cl)c(Cl)c1)Nc1cccc(C(F)(F)F)c1 (stereo not drawn) [Example 293] | 51 to 500 |
| O=C(NCC(CCN1CCC(N2CCCCC2)CC1)c1ccc(F)c(F)c1)Nc1ccc(F)c(Cl)c1 (stereo not drawn) [Example 378] | 501 to 2500 |
| O=C(NCC(CCNC1CCCC1)c1ccc(-c2cccs2)cc1)Nc1cc(Cl)cc(Cl)c1 (stereo not drawn) [Example 230] | 51 to 500 |
| CCNC(=O)NC1CCN(CCC(CNC(=O)Nc2cc(Cl)cc(Cl)c2)c2ccc(Cl)cc2)C1 (stereo not drawn) [Example 321] | 501 to 2500 |
| O=C(NCC(CCNCc1ccc2c(c1)OCO2)c1ccc(Cl)c(Cl)c1)Nc1cccc(C(F)(F)F)c1 (stereo not drawn) [Example 302] | 501 to 2500 |
| O=C(NCC(CCN1CCCC1)c1cccc(Cl)c1)Nc1cc(C(F)(F)F)cc(C(F)(F)F)c1 (stereo not drawn) [Example 334] | 501 to 2500 |
| COc1ccc(C(CCN2CCCC2)CNC(=O)Nc2cc(C(F)(F)F)cc(C(F)(F)F)c2)cc1 (stereo not drawn) [Example 335] | 501 to 2500 |
| Cc1ccc(C(CCNc2c(C)noc2C)CNC(=O)Nc2cc(Cl)cc(Cl)c2)cc1 (stereo not drawn) [Example 275] | 501 to 2500 |
| O=C(NCC(CCNC1CCC1)c1ccc(Cl)c(Cl)c1)Nc1ccc(Cl)c(Cl)c1 (stereo not drawn) [Example 282] | 51 to 500 |
| O=C(NCc1cc(C(F)(F)F)cc(C(F)(F)F)c1)C(CCNCCc1c[nH]c2ccc(F)cc12)c1ccc(Cl)c(Cl)c1 (stereo not drawn) [Example 386] | 501 to 2500 |
